Laboratory results as given in patent US20220175925A1, “PHARMACEUTICAL COMPOSITION FOR PREVENTING OR TREATING TREATMENT-RESISTANT CANCER” (JIMRO CO., LTD., priority 2019, published 2022).
pEC50: −log10 of the molar value.

Key:
Type in all cases: cell-based
[1] = test system: ATN-1 ATL cell line; test: PDT using 5-ALA, cell survival rate by Cell Counting Kit-8, ATN-1; settings: Homo sapiens, ATN-1, light or radiation study, 4 h, 5-ALA loaded 4 hours
Text: (§1) ATN-1, C8166, TL-Om1, Hut102, and MT-1 were used as ATL cell lines. Among them, lenalidomide-sensitive cell line was Hut102 and lenalidomide-resistant cell line was C8166. The sensitivity of ATN-1, TL-Om1, and MT-1 to lenalidomide was unknown. Meanwhile, tretinoin-sensitive cell line was C8166 and tretinoin-resistant cell line was Hut102. The sensitivity of ATN-1, TL-Om1, and MT-1 to tretinoin was unknown. In addition, mogamulizumab-sensitive cell lines were ATN-1, TL-Om1, and MT-1, and mogamulizumab-resistant cell line was Hut102. The sensitivity of C8166 to mogamulizumab was unknown. These cells were passaged and cultured. For the experiment, cells were prepared to a density of 1×10^6 cells/ml at the beginning of the experiment.
(§2) To the cell suspension, 5-ALA was added at concentrations of 0, 0.0625, 0.125, 0.25, and 0.5 mM and loaded for 4 hours. The cell after 5-ALA loading was washed and irradiated with light (0, 10, 30, and 100 J/cm^2) at a central wavelength of 630 nm, and cell survival rate (%) was calculated by Cell Counting Kit-8.

[2] = test system: C8166 ATL cell line; test: PDT using 5-ALA, cell survival rate by Cell Counting Kit-8, C8166; settings: for pEC50: Homo sapiens, C8166, light or radiation study, 4 h, C8166, 5-ALA loaded 4 hours
Text: as §1, §2

[3] = test system: MT-1 ATL cell line; test: PDT using 5-ALA, cell survival rate by Cell Counting Kit-8, MT-1; settings: light or radiation study, 4 h, 5-ALA loaded 4 hours
Text: as §1, §2

[4] = test system: TL-Om1 ATL cell line; test: PDT using 5-ALA, cell survival rate by Cell Counting Kit-8, TL-Om1; settings: light or radiation study, 4 h, 5-ALA loaded 4 hours
Text: as §1, §2

[5] = test system: LAMA84-r imatinib-resistant CML cell line; test: PDT using 5-ALA, cell survival rate by Cell Counting Kit-8, LAMA84-r
Protocol: (§3) LAMA84-r was used as imatinib-resistant CML cell line and the original cell line LAMA84-s (imatinib-sensitive) was used as a comparative control. In addition, K562/ADR was used as doxorubicin-resistant CML cell line and the original cell line K562 (doxorubicin-sensitive) was used as a comparative control. These cells were passaged and cultured. For the experiment, cells were prepared to a density of 1×10^6 cells/ml at the beginning of the experiment.
as §2

[6] = test system: K562/ADR doxorubicin-resistant CML cell line; test: PDT using 5-ALA, cell survival rate by Cell Counting Kit-8, K562/ADR
Protocol: as §3, §2

[7] = test system: Hut102 ATL cell line; test: PDT using 5-ALA, cell survival rate by Cell Counting Kit-8, Hut102; settings: for pEC50: HuT-102, light or radiation study, 4 h, Hut102, 5-ALA loaded 4 hours
Text: as §1, §2

Question: What does the source list for `NCC(=O)CCC(=O)O` [5-ALA, 5-aminolevulinic acid]?
Answer: pEC50 ([1]; 10 J/cm^2 at 630 nm): 3.95; pEC50 ([1]; 30 J/cm^2 at 630 nm): 4.06; pEC50 ([1]; 100 J/cm^2 at 630 nm): 4.08; cell killing by PDT using 5-ALA ([2]; C8166, lenalidomide-resistant cell line, FIG. 1): killed; pEC50 ([2]; 10 J/cm^2 at 630 nm): 3.95; pEC50 ([2]; 30 J/cm^2 at 630 nm): 4.06; pEC50 ([2]; 100 J/cm^2 at 630 nm): 4.11; cell killing effect of PDT using 5-ALA relative to sensitive cell line ([2]; lenalidomide-resistant C8166 versus lenalidomide-sensitive Hut102): comparable; cell killing effect of PDT using 5-ALA relative to sensitive cell line ([2]; tretinoin-resistant cell line C8166 versus tretinoin-sensitive cell line Hut102 (so in the source)): comparable; pEC50 ([3]; 10 J/cm^2 at 630 nm): < 3.30; pEC50 ([3]; 30 J/cm^2 at 630 nm): 3.69; pEC50 ([3]; 100 J/cm^2 at 630 nm): 3.94; pEC50 ([4]; 10 J/cm^2 at 630 nm): 3.57; pEC50 ([4]; 30 J/cm^2 at 630 nm): 3.85; pEC50 ([4]; 100 J/cm^2 at 630 nm): 4.04; cell killing by PDT using 5-ALA ([5]; LAMA84-r, imatinib-resistant cell line, FIG. 2): killed; cell killing effect of PDT using 5-ALA relative to sensitive cell line ([5]; imatinib-resistant LAMA84-r versus LAMA84-s): comparable; cell killing by PDT using 5-ALA ([6]; K562/ADR, doxorubicin-resistant cell line, FIG. 2): killed; cell killing effect of PDT using 5-ALA relative to sensitive cell line ([6]; doxorubicin-resistant K562/ADR versus K562): comparable; cell killing by PDT using 5-ALA ([7]; HuT102, mogamulizumab-resistant and tretinoin-resistant cell line, FIG. 1): killed; pEC50 ([7]; 10 J/cm^2 at 630 nm): 3.36; pEC50 ([7]; 30 J/cm^2 at 630 nm): 3.56; pEC50 ([7]; 100 J/cm^2 at 630 nm): 3.76; cell killing effect of PDT using 5-ALA relative to sensitive cell lines ([7]; mogamulizumab-resistant Hut102 versus the other sensitive cell lines (ATN-1, TL-Om1, MT-1)): at least comparable
